Laboratory results as given in ChEMBL document CHEMBL5032500, “Adenosine A2AR/A1R Antagonists Enabling Additional H3R Antagonism for the Treatment of Parkinson's Disease” (J Med Chem, 2021).

Key:
[1] = target: T1, Adenosine receptor A1 (Homo sapiens, UniProt P30542); test: Displacement of [3H]CCPA from human recombinant adenosine A1 receptor expressed in CHO cells by liquid scintillation counting analysis; type: cell-based
T1 sequence (P30542 whole entry): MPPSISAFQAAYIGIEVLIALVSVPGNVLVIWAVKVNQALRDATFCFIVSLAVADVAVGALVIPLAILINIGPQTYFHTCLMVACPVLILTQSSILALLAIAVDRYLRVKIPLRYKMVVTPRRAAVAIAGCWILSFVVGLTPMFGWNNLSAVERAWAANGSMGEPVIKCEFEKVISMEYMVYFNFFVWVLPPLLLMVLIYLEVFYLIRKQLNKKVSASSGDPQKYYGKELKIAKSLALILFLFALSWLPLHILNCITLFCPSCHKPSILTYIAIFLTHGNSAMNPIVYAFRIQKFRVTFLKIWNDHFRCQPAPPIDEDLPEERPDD

[2] = target: T2, Adenosine receptor A2a (Homo sapiens, UniProt P29274); test: Displacement of [3H]MSX-2 from human recombinant adenosine A2A receptor expressed in CHO cells by liquid scintillation counting analysis; type: cell-based
[3] = target: T3, Adenosine receptor A2b (Homo sapiens, UniProt P29275); test: Displacement of [3H]PSB-603 from human recombinant adenosine A2B receptor expressed in CHO cells by liquid scintillation counting analysis; type: cell-based
T3 sequence (P29275 whole entry): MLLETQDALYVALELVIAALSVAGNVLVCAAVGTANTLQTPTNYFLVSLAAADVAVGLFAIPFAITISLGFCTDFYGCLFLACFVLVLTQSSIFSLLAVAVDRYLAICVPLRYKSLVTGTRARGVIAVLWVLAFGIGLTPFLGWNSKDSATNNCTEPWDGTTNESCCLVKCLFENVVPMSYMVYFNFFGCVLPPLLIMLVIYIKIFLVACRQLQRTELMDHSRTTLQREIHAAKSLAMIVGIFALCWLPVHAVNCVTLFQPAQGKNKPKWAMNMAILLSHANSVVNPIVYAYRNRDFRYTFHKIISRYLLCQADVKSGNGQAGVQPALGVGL

[4] = target: T4, Adenosine receptor A3 (Homo sapiens, UniProt P0DMS8); test: Displacement of [3H]PSB-11 from human recombinant adenosine A3 receptor expressed in CHO cells by liquid scintillation counting analysis; type: cell-based
T4 sequence (P0DMS8 whole entry): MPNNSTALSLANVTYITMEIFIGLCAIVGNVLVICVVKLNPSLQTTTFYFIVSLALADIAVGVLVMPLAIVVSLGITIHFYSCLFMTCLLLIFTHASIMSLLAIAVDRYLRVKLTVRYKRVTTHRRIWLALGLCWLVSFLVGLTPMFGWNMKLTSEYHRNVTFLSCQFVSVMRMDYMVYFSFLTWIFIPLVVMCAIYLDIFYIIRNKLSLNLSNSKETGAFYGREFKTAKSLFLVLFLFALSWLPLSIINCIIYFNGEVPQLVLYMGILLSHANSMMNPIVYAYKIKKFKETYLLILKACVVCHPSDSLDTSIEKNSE

[5] = target: T5, Adenosine receptor A1 (Homo sapiens) (UniProt P30542); test: Displacement of [3H]CCPA from human recombinant adenosine A1 receptor expressed in CHO cells at 1 uM by liquid scintillation counting analysis; type: cell-based
T5 sequence (whole entry): T1 sequence (P30542 whole entry)

[6] = target: T2, Adenosine receptor A2a; test: Displacement of [3H]MSX-2 from human recombinant adenosine A2A receptor expressed in CHO cells at 1 uM by liquid scintillation counting analysis; type: cell-based
[7] = target: T6, Adenosine receptor A2b (Homo sapiens) (UniProt P29275); test: Displacement of [3H]PSB-603 from human recombinant adenosine A2B receptor expressed in CHO cells at 1 uM by liquid scintillation counting analysis; type: cell-based
T6 sequence (whole entry): T3 sequence (P29275 whole entry)

[8] = target: T7, Adenosine receptor A3 (Homo sapiens) (UniProt P0DMS8); test: Displacement of [3H]PSB-11 from human recombinant adenosine A3 receptor expressed in CHO cells at 1 uM by liquid scintillation counting analysis; type: cell-based
T7 sequence (whole entry): T4 sequence (P0DMS8 whole entry)

[9] = target: Histamine H3 receptor (Homo sapiens, UniProt Q9Y5N1); test: Displacement of [3H] N-alpha methylhistamine from human recombinant histamine H3 receptor expressed in HEK293 cells measured after 90 mins; type: cell-based
[10] = tested on: SH-SY5Y; test: Cytotoxicity against human SH-SY5Y cells assessed as remaining cell viability at 1000 nM incubated for 24 hrs; type: functional
[11] = target: T1, Adenosine receptor A1; test: Binding affinity to human recombinant adenosine A1 receptor expressed in CHO cells using [3H]CCPA by functional activity assay; type: cell-based
[12] = target: T3, Adenosine receptor A2b; test: Binding affinity to human recombinant adenosine A2B receptor expressed in CHO cells using [3H]PSB-603 by functional activity assay; type: cell-based

Histamine H3 receptor, sequence (Q9Y5N1 whole entry): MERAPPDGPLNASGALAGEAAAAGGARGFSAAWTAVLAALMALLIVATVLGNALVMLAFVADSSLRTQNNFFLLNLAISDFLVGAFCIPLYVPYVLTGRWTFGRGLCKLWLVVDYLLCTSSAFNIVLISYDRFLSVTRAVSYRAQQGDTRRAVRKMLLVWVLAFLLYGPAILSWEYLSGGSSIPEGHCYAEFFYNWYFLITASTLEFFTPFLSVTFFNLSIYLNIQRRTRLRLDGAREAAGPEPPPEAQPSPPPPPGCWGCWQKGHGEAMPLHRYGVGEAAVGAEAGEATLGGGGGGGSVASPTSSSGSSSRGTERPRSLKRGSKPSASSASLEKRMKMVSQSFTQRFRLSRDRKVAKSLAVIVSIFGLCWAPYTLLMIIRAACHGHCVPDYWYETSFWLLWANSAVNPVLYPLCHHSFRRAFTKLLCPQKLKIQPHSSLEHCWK
T2 sequence (P29274 whole entry): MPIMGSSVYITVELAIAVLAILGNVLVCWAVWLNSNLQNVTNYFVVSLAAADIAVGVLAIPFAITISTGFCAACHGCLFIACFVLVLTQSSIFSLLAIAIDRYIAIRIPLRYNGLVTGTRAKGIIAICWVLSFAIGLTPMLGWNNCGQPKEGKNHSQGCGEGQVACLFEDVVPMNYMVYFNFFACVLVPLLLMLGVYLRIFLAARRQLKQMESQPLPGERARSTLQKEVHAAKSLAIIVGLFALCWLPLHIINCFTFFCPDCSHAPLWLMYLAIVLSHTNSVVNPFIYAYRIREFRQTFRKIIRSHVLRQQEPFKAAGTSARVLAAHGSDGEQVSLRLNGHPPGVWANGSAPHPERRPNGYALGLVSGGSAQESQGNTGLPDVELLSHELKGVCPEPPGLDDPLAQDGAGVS

Row | Structure (SMILES) | Ki [1] | Ki [2] | Ki [3] | Ki [4] | inhibition [5] | inhibition [6] | inhibition [7] | inhibition [8] | Ki [9] | EC50 [11] | EC50 [12] | Activity [10]
1 | Nc1nc(-c2ccccc2)c2c(n1)-c1cc(OCCCN3CCCCC3)ccc1C2 | 18.7 nM | 4.85 nM | 58.1 nM | 231 nM |  |  |  |  | 4.5 nM |  |  | >75%
2 | Nc1nc(-c2ccc(OCCCN3CCCCC3)cc2)c2c(n1)-c1ccccc1C2=O | 133 nM | 35.5 nM | 331 nM | > 1000 nM |  |  |  | 33% | 0.28 nM |  |  | 
3 | Nc1nc(-c2ccccc2)c2c(n1)-c1cc(OCCN3CCOCC3)ccc1C2=O |  |  |  | 430 nM |  |  |  |  |  | 48 nM | 230 nM | 
4 | Nc1nc(-c2ccccc2)c2c(n1)-c1cc(OCCCN3CCCC3)ccc1C2=O | 12.6 nM | 6.24 nM | 47.5 nM | 199 nM |  |  |  |  | 17 nM |  |  | 
5 | Nc1nc(-c2ccccc2)c2c(n1)-c1ccc(OCCCN3CCCC3)cc1C2=O | 129 nM | 104 nM | 180 nM | 846 nM |  |  |  |  | 31 nM |  |  | 

Second part, led by results:

Row | Ki [1] | Ki [2] | Ki [3] | Ki [4] | inhibition [5] | inhibition [6] | inhibition [7] | inhibition [8] | Ki [9] | EC50 [11] | EC50 [12] | Structure (SMILES) | Activity [10]
6 | > 1000 nM | > 1000 nM | > 1000 nM | > 1000 nM |  |  |  |  |  |  |  | O=C(c1ccc(OCCCc2cnc[nH]2)cc1)C1CC1 [CIPROXIFAN] | 
7 |  |  |  |  | -6% | -1% | 8% | 3% |  |  |  | O=C(c1ccc(OCCCc2c[nH]cn2)cc1)C1CC1 | 
8 |  |  | > 1000 nM | > 1000 nM |  |  |  |  |  |  |  | COCCOc1ccc(N2CCN(CCn3ncc4c3nc(N)n3nc(-c5ccco5)nc43)CC2)cc1 [PRELADENANT] | 
